Measurements taken from PubChem BioAssay (NCI).
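Test compounds were applied to cells in 96-well plates for 48 hours at 5 doses. GI50: concentration for 50% inhibition of growth. Definition used: TGI = concentration required for complete inhibition of growth.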

Tests used:
Assay in all cases: DTP human tumour cell line panel, 48 h
[1] = system: NCI/ADR-RES ovarian
[2] = system: OVCAR-8 ovarian
[3] = system: EKVX NSCLC
[4] = system: RXF 393 renal
[5] = system: MDA-MB-435
[6] = system: SK-MEL-28 melanoma
[7] = system: OVCAR-4 ovarian
[8] = system: M14 melanoma
[9] = system: COLO 205 colon
[10] = system: CCRF-CEM leukemia

Molecule `CCCCCCSSC(=S)N(CC)CC` has a GI50 [1] of 28.1 µM, a TGI [1] of 96.5 µM and a GI50 [2] of 20 µM. The TGI [2] was 46.6 µM, the GI50 [3] was 37.1 µM and the TGI [3] was over 100 µM. It also gave a GI50 [4] of 17.1 µM, a TGI [4] of 32.9 µM and a GI50 [5] of 22100 nM. For the same molecule, the TGI [5] was 57900 nM, the GI50 [6] was 25 µM and the TGI [6] was 61.4 µM. The GI50 [7] was 15.1 µM, the TGI [7] was 28.8 µM and the GI50 [8] was 19200 nM. It also gave a TGI [8] of 47.6 µM.
In the case of `C1CCCCc2nc3c(nc2CCC1)c1nc2c(nc1c1nc4c(nc31)CCCCCCCC4)CCCCCCCC2`, the TGI [2] was over 100 µM, the TGI [9] was over 100 µM and the TGI [6] was over 100 µM. For the same molecule, the TGI [10] was over 100 µM and the TGI [8] was over 100 µM.
`COc1cc(C2C3=C(COC3=O)N(CCO)c3cc4c(cc32)OCCO4)cc(OC)c1OC` (centres undefined) was tested, and the GI50 [1] was 6.75 µM, the TGI [1] was over 40.7 µM and the GI50 [2] was 0.24 µM. The TGI [2] was over 50 µM, the GI50 [9] was 0.15 µM and the TGI [9] was 0.409 µM. The GI50 [3] was 0.413 µM, the TGI [3] was over 50 µM and the GI50 [5] was 103 nM. It also gave a TGI [5] of 256 nM, a GI50 [6] of over 50 µM and a TGI [6] of over 50 µM. For the same molecule, the GI50 [7] was 0.416 µM, the TGI [7] was over 50 µM and the GI50 [10] was 176 nM. It also gave a TGI [10] of over 50 µM and a GI50 [8] of 181 nM.
`Clc1ccc(-c2c3ccc(=[N+]4CCCCC4)cc-3oc3cc(N4CCCCC4)ccc23)cc1` showed a GI50 [4] of 0.129 µM, a TGI [4] of 0.279 µM and a GI50 [10] of 153 nM. For the same molecule, the TGI [10] was 1.97 µM, the GI50 [8] was 69.6 nM and the TGI [8] was 0.209 µM.
Work on `CSc1nc2nc3c(nc2c(=O)n1C)C(=O)c1ccccc1C3=O` yielded a GI50 [1] of 0.253 µM, a TGI [1] of 0.938 µM and a GI50 [2] of 0.225 µM. It also gave a TGI [2] of 0.834 µM, a GI50 [9] of 0.173 µM and a TGI [9] of 0.357 µM. It also gave a GI50 [4] of 0.253 µM, a TGI [4] of 0.819 µM and a GI50 [5] of 21.8 nM. The TGI [5] was 47.1 nM, the GI50 [6] was 0.188 µM and the TGI [6] was 0.452 µM. The GI50 [10] was 259 nM, the TGI [10] was 0.794 µM and the GI50 [8] was 99.4 nM. For the same molecule, the TGI [8] was 0.252 µM.
With `COc1ccc(C2=Nc3ccccc3SC(C)C2)cc1OC` (centres undefined) the TGI [2] was 43.8 µM, the TGI [9] was 40.6 µM and the TGI [3] was 56.5 µM. The TGI [6] was 56.6 µM, the TGI [7] was 57.4 µM and the TGI [10] was 87.3 µM. The TGI [8] was 33 µM.
In the case of `CCCOC(=O)c1c(C)n(C)c2scc[n+]12`, the GI50 [1] was over 100 µM, the TGI [1] was over 100 µM and the GI50 [2] was 49.2 µM. For the same molecule, the TGI [2] was over 100 µM, the GI50 [9] was 17.8 µM and the TGI [9] was 46.8 µM. It also gave a GI50 [3] of 13.7 µM, a TGI [3] of over 100 µM and a GI50 [5] of over 100000 nM. The TGI [5] was over 100000 nM, the GI50 [6] was over 100 µM and the TGI [6] was over 100 µM. It also gave a GI50 [7] of 37.1 µM, a TGI [7] of over 100 µM and a GI50 [10] of 53500 nM. It also gave a TGI [10] of over 100 µM, a GI50 [8] of over 100000 nM and a TGI [8] of over 100 µM.
In the case of `Cc1ccc(N=C[N-]c2ccc(C)cc2)cc1.Cc1ccc(N=C[N-]c2ccc(C)cc2)cc1.O=C([O-])C(F)(F)F.O=C([O-])C(F)(F)F.[OH3+].[OH3+].[Rh+2].[Rh+2]`, the GI50 [2] was 35.1 µM, the TGI [2] was over 100 µM and the GI50 [9] was 36.3 µM. For the same molecule, the TGI [9] was over 100 µM, the GI50 [3] was 50.2 µM and the TGI [3] was over 100 µM. For the same molecule, the GI50 [4] was 15.1 µM, the TGI [4] was 33.1 µM and the GI50 [6] was 14.1 µM. For the same molecule, the TGI [6] was 39.2 µM, the GI50 [7] was 44.6 µM and the TGI [7] was over 100 µM. For the same molecule, the GI50 [10] was 23200 nM, the TGI [10] was 55.8 µM and the GI50 [8] was 26200 nM. It also gave a TGI [8] of 70.3 µM.
`Cc1ccc(NC(=O)C(=O)CC(=O)c2c(C)n([O-])c3ccccc3[n+]2=O)cc1C` was tested, and the TGI [2] was over 100 µM, the TGI [9] was over 100 µM and the TGI [3] was over 100 µM. The TGI [4] was over 100 µM, the TGI [6] was over 100 µM and the TGI [7] was over 100 µM. The TGI [10] was over 100 µM and the TGI [8] was over 100 µM.
